We go through one compound from PMC6432920 (Journal of medicinal chemistry, 2017).

For series [1] the following is noted: human liver microsomes; cited from earlier work.
For series [2] the following is noted: one dose treatment, nude mice bearing MCF-7 xenograft tumors; cited from earlier work.

Where two headings read alike, the source gives them in different places.

As for `COc1ccc2c(c1)NC(=O)CN2c1nc(C)nc2ccccc12` [Compound 2, 7-Methoxy-4-(2-methylquinazolin-4-yl)-3,4-dihydroquinoxalin-2(1H)-one], the body weight end is 25.96 ± 1.54 g (0.25 mg/kg iv Q5D × 4), 23.85 ± 1.57 g (0.5 mg/kg iv Q5D × 4) and 20.50 ± 3.27 g (1.0 mg/kg iv Q5D × 4). In addition, the body weight start came to 22.44 ± 1.27 g (0.25 mg/kg iv Q5D × 4), 22.28 ± 1.33 g (0.5 mg/kg iv Q5D × 4) and 22.13 ± 1.24 g (1.0 mg/kg iv Q5D × 4). In addition, the signs of toxicity result (mice, 1.0 mg/kg) is “without obvious signs of toxicity”. Moreover, the “metabolic stability in vitro t1/2” value in series [1] was 55 min. Further, the lethal dose in series [2] is listed as 4 mg/kg.
